{
  "source": "patent US20090054500A1",
  "about": "“Composition and methods useful in preventing cardiac hypertrophy” (The Brigham and Women's Hospital, Inc., priority 2005, published 2009)",
  "key": {"mouse cardiomyoctes": {"system": "mouse cardiomyoctes", "protocol": "Cell hypertrophy was determined by the incorporation of ^3H-leucine."}, "[1]": {"system": "gridlock phenotype associated with mutations in the CHF1 gene in zebrafish", "conditions": "Peterson, et al., Nat. Biotechnol. 22:595-599 (2004); cited from earlier work"}, "VEGF": {"system": "VEGF", "conditions": "Peterson, et al., Nat. Biotechnol. 22:595 (2004); cited from earlier work"}, "cardiomyocytes": {"system": "cardiomyocytes", "conditions": "cardiomyocytes in vitro"}},
  "note": "Several values for one entry are separate records, joined by “and”; a condition that tells them apart may be missing. Equal values may be shown once. Read-outs that look alike come from different tables or passages of the source.",
  "data": [
    {"smiles": "COc1ccc(SCCc2ccncc2)cc1.Cl", "note": "[GS4012, 4-(2-(4-Methoxyphenylsulfanyl)ethyl)pyridine, HCl]", "values": [
      {"measurement": "incorporation of 3H-leucine (cell hypertrophy), mean", "setting": "mouse cardiomyoctes; Table 2, GS4012 + FCS, mean of 12 tests", "result": 340.5825, "unit": "counts per minute"},
      {"measurement": "incorporation of 3H-leucine (cell hypertrophy), mean", "setting": "mouse cardiomyoctes; Table 2, GS4012, no FCS, mean of 12 tests", "result": 397.6667, "unit": "counts per minute"},
      {"measurement": "incorporation of 3H-leucine (cell hypertrophy), mean", "setting": "mouse cardiomyoctes; Table 3, WT, GS4012 2.5 μg/ml, no FCS, mean of 8 tests, HCl", "result": "329.4 counts per minute and 329.37 counts per minute"},
      {"measurement": "incorporation of 3H-leucine (cell hypertrophy), mean", "setting": "mouse cardiomyoctes; Table 3, WT, GS4012 + FCS, mean of 8 tests, HCl", "result": "419.7925 counts per minute and 419.8 counts per minute"},
      {"measurement": "FCS induction of cardiomyocyte proliferation when GS4012 was present", "setting": "mouse cardiomyoctes; cpm for vehicle+GS4012 compared with vehicle+GS4012+FCS", "result": "did not occur"},
      {"measurement": "effect on gridlock phenotype", "setting": "[1]", "result": "suppresses the gridlock phenotype"},
      {"measurement": "VEGF and VEGF-mediated vessel formation", "setting": "VEGF", "result": "induces"},
      {"measurement": "effect on phenylephrine-induced hypertrophy", "setting": "cardiomyocytes", "result": "prevent phenylephrine-induced hypertrophy"}
    ]}
  ]
}
